Each structure is given as a SMILES string. Like-named read-outs stand apart in the source and are kept apart here.

The test system of assay [1] is TNFα. In words: TNFα secretion by stimulated white blood cells, SSRI/corticosteroid combination matrices (Example 4, stimulus not given). It counts as cell-based. To be noted: Homo sapiens, read-out: percent inhibition of TNFα secretion; for inhibition at 0.003 µM: prednisolone 0.003 μM; for inhibition at 0.006 µM: prednisolone 0.006 μM; for inhibition at 0.05 µM: prednisolone 0.050 μM; for inhibition at 0.1 µM: prednisolone 0.100 μM; for inhibition at 0.2 µM: prednisolone 0.200 μM.

The test system of the next assay is IL-2. In words: IL-2 secretion by white blood cells/PBMC stimulated with phorbol 12-myristate 13-acetate and ionomycin (PI), ELISA. As to conditions: for percent inhibition of cytokine secretion, IL-2: concentration (μM).
The subject of assay [2] is TNFα. In words: TNFα secretion by white blood cells/PBMC stimulated with phorbol 12-myristate 13-acetate and ionomycin (PI), ELISA. To be noted: concentration (μM). A general note: ELISA stands for enzyme-linked immunosorbent assay.
Description: (§1) Various concentrations of each test compound were added at the time of stimulation. […] After the plate was washed with 0.1% Tween 20/PBS, an HRP-luminescent substrate was added to each well and light intensity measured using a LJL Analyst plate luminometer.
(§2) Single agents were tested for the ability to suppress secretion of IFNγ, IL-1β, IL-2, and TNFα from stimulated white blood cells, and the percent inhibition of cytokine secretion, relative to untreated stimulated white blood cells, was determined.
The test system of assay [3] is TNFα. The assay can be described thus: TNFα secretion by white blood cells stimulated with lipopolysaccharide (LPS), ELISA. To be noted: concentration (μM). It counts as cell-based, human.
Description: as §1, §2
Another assay relates to IL-1β. In words: IL-1β secretion by white blood cells stimulated with lipopolysaccharide, ELISA. The assay is classed as cell-based, human.
Another assay relates to IL-4. The assay can be described thus: IL-4 secretion, buffy coat assay supernatant, Cytometric 6 Bead Array. As to conditions: Homo sapiens, read-out: IL-4 % Inhibition.
Another assay has as its system IL-5. In words: IL-5 secretion, buffy coat assay supernatant, Cytometric 6 Bead Array. As to conditions: Homo sapiens, read-out: IL-5 % Inhibition.
Where [4] appears, read: citalopram alone, 20.00 to 0.01.
Where [5] appears, read: Homo sapiens, PBMC, read-out: % Inhibition IL-2 PBMC PI.
Where [6] appears, read: fluoxetine alone, 29.00 to 0.01.
Setting [7] is: norfluoxetine alone, 45.00 to 0.02.
[8] abbreviates: paroxetine alone, 27.00 to 0.03.
[9] abbreviates: fluoxetine concentration (μM), 7.230 to 0.000.
Where [10] appears, read: paroxetine concentration (μM), 6.000 to 0.000.
The mark [11] stands for this setting: R(+) fluoxetine alone, 58 to 0.028.
[12] abbreviates: S(+) fluoxetine alone, 58 to 0.028.

Description for IL-1β: as §1, §2
Description for IL-2: as §1, §2
Description for IL-4: (§3) Analysis of IL-4 and IL-5 cytokine expression was performed using the BD PharMingen Cytometric 6 Bead Array system according to the manufacturer's instructions. Briefly, the supernatant from a buffy coat assay plate wa incubated with the labeled cytokine detection bead cocktail. The samples were then washed, resuspended and read on the BD Pharmingen FACsCalibur flow cytometer. Data was then analyzed using the BD Pharmingen CBA 6 Bead Analysis software.
Description for IL-5: as §3

For `CCCC1O[C@@H]2C[C@H]3[C@@H]4CCC5=CC(=O)C=C[C@]5(C)[C@H]4[C@@H](O)C[C@]3(C)[C@]2(C(=O)CO)O1` (stereo partly shown) [Budesonide, budesonide], the inhibition (usually the drop in the measured response relative to a control, in per cent) at 0.0005 µM in the assay with TNFα [1] (budesonide 0.0005 μM, fluoxetine concentration (μM), 0 to 0.580) was -2.4%. In the assay with TNFα [1] (budesonide 0.002 μM, fluoxetine concentration (μM), 0 to 0.580), the inhibition at 0.002 µM was -8.9%. Besides, in the assay with TNFα [1] (budesonide 0.009 μM, fluoxetine concentration (μM), 0 to 0.580), the inhibition at 0.009 µM was 5.3%.
With `CN(C)CCCC1(c2ccc(F)cc2)OCc2cc(C#N)ccc21` (stereo not shown) [Citalopram], the “percent inhibition of cytokine secretion, IL-2” value (“percent inhibition … IL-2” below) in the assay with IL-2 (setting [4]) was 0%. In the assay with TNFα [2] (setting [4]), the “percent inhibition of cytokine secretion, TNFα (PI)” value (“percent inhibition … (PI)” for short) worked out at 0%.
`C[C@@H]1C[C@H]2[C@@H]3CCC4=CC(=O)C=C[C@]4(C)[C@@]3(F)[C@@H](O)C[C@]2(C)[C@@]1(O)C(=O)CO` [Dexamethasone, dexamethasone]: the inhibition at 0.0004 µM in the assay on TNFα [1] (dexamethasone 0.0004 μM, paroxetine concentration (μM), 0 to 6.000) came to 2.1%. The inhibition at 0.0006 µM in the assay on TNFα [1] (dexamethasone 0.0006 μM, fluoxetine concentration (μM), 0 to 0.580) was -3.8%. For the same molecule, the inhibition at 0.0008 µM in the assay on TNFα [1] (dexamethasone 0.0008 μM, paroxetine concentration (μM), 0 to 6.000) amounted to 6.7%.
As for `CNCCC(Oc1ccc(C(F)(F)F)cc1)c1ccccc1` (stereo not shown) [Fluoxetine], in the assay with IL-2 (setting [5]), the inhibition at 10 µM worked out at 16.1%, the inhibition at 21 µM is 47.4%, the inhibition at 42 µM stood at 90.3% and the inhibition at 84 µM amounted to 103%. The “percent inhibition … IL-2” value in the assay with IL-2 (setting [6]) was 0%. The “percent inhibition of cytokine secretion, TNFα (LPS)” value (from here on “percent inhibition … (LPS)”) with TNFα [3] (setting [6]) was 0%. In the assay on IL-1β (fluoxetine alone, concentration (μM), 29.00 to 0.01), the “percent inhibition of cytokine secretion, IL-1β” value (shortened to “percent inhibition … IL-1β”) is 0%. Also, the “percent inhibition … (PI)” value in the assay on TNFα [2] (setting [6]) stood at 6%.
As for `COCCCC/C(=N\OCCN)c1ccc(C(F)(F)F)cc1` [Fluvoxamine], in the assay with IL-2 (setting [5]), the inhibition at 5 µM was determined as 3.6%, the inhibition at 10 µM was determined as 8.1% and the inhibition at 20 µM turned out to be 22%. Moreover, the “percent inhibition … (LPS)” value in the assay with TNFα [3] (fluvoxamine alone, 63 to 0.031) is on record as 0%. Moreover, the “percent inhibition … IL-1β” value with IL-1β (fluvoxamine alone, concentration (μM), 63 to 0.031) worked out at 0%. Moreover, the “percent inhibition … (PI)” value with TNFα [2] (fluvoxamine alone, 63 to 0.031) is listed as 0%.
As for `NCCC(Oc1ccc(C(F)(F)F)cc1)c1ccccc1` (stereo not shown) [Norfluoxetine, norfluoxetine], in the assay on IL-2 (setting [7]), the “percent inhibition … IL-2” value stood at 0%. The “percent inhibition … (LPS)” value with TNFα [3] (setting [7]) was 0%. For the same molecule, in the assay on IL-1β (norfluoxetine alone, concentration (μM), 45.00 to 0.02), the “percent inhibition … IL-1β” value turned out to be 0%. Moreover, the “percent inhibition … (PI)” value with TNFα [2] (setting [7]) is listed as 0%.
As for `Fc1ccc([C@@H]2CCNC[C@H]2COc2ccc3c(c2)OCO3)cc1` [Paroxetine], the inhibition at 28 µM with IL-4 was determined as 97.1%. Further, in the assay on IL-2 (setting [5]), the inhibition at 18 µM was 54.2%, the inhibition at 36 µM worked out at 83.5% and the inhibition at 72 µM came to 95.7%. Moreover, the “percent inhibition … IL-2” value with IL-2 (setting [8]) stood at 0%. Also, in the assay on TNFα [3] (setting [8]), the “percent inhibition … (LPS)” value is reported as 0%. The inhibition at 28 µM with IL-5 was 97.8%. Besides, in the assay with IL-1β (paroxetine alone, concentration (μM) in c4 of the same row, 53.00 to 0.05), the “percent inhibition … IL-1β” value is recorded as 0%. Also, the “percent inhibition … (PI)” value in the assay with TNFα [2] (setting [8]) turned out to be 0%.
As for `C[C@]12C=CC(=O)C=C1CC[C@@H]1[C@@H]2[C@@H](O)C[C@@]2(C)[C@H]1CC[C@]2(O)C(=O)CO` [Prednisolone, prednisolone], the inhibition at 1 µM with IL-4 came to 47.8%; with IL-5, 75.5%; in the assay with TNFα [1] (Prednisolone 1.0000 μM alone), 34%; with TNFα [1] (prednisolone 1.0000 μM, fluoxetine concentration (μM), 0 to 29.00), 35.1%; in the assay with TNFα [1] (prednisolone 1.0000 μM, paroxetine concentration (μM), 0 to 27.00) it was 38.6%. Moreover, the inhibition at 0.5 µM was found to be 29.1% in the assay on TNFα [1] (Prednisolone 0.500 μM alone); 39% in the assay on TNFα [1] (prednisolone 0.500 μM, fluoxetine concentration (μM), 0 to 29.00); 35.4% in the assay with TNFα [1] (prednisolone 0.500 μM, paroxetine concentration (μM), 0 to 27.00). Further, the inhibition at 0.0008 µM in the assay on TNFα [1] (prednisolone 0.0008 μM, fluoxetine concentration (μM), 7.230 to 0.000) is 3.8%. Also, the values for the inhibition at 0.003 µM in the assay on TNFα [1] (setting [9]) and in the assay with TNFα [1] (setting [10]) were 4.4% and -0.1%, respectively. In addition, the values for the inhibition at 0.006 µM with TNFα [1] (setting [9]) and in the assay on TNFα [1] (setting [10]) were 7% and 4.6%, respectively. The inhibition at 0.05 µM in the assay on TNFα [1] (setting [9]) turned out to be 24.3%; in the assay with TNFα [1] (setting [10]), 23.4%. Further, the inhibition at 0.1 µM was determined as 31.6% in the assay on TNFα [1] (setting [9]) and 29.4% in the assay on TNFα [1] (setting [10]). Also, the inhibition at 0.2 µM in the assay on TNFα [1] (setting [9]) amounted to 39.7%; in the assay on TNFα [1] (setting [10]), 34.1%. The inhibition at 0.4 µM in the assay with TNFα [1] (prednisolone 0.400 μM, paroxetine concentration (μM), 6.000 to 0.000) came out at 36.2%.
On to `CNCC[C@@H](Oc1ccc(C(F)(F)F)cc1)c1ccccc1` [R(+) Fluoxetine], for which the “percent inhibition … IL-2” value with IL-2 (setting [11]) was found to be 0%. Also, in the assay with TNFα [3] (setting [11]), the “percent inhibition … (LPS)” value came out at 0%. In addition, in the assay on IL-1β (R(+) fluoxetine alone, concentration (μM), 58 to 0.028), the “percent inhibition … IL-1β” value is recorded as 0%. In addition, the “percent inhibition … (PI)” value in the assay on TNFα [2] (setting [11]) stood at 0%.
Consider `CNCC[C@H](Oc1ccc(C(F)(F)F)cc1)c1ccccc1` [S(+) Fluoxetine], for which the “percent inhibition … IL-2” value with IL-2 (setting [12]) came to 0%. Besides, the “percent inhibition … (LPS)” value in the assay with TNFα [3] (setting [12]) stood at 0%. The “percent inhibition … IL-1β” value in the assay with IL-1β (S(+) fluoxetine alone, concentration (μM), 58 to 0.028) is given as 0%. In addition, the “percent inhibition … (PI)” value with TNFα [2] (setting [12]) is 0%.
With `COc1ccc(C(CN(C)C)C2(O)CCCCC2)cc1` (stereo not shown) [Venlafaxine], the “percent inhibition … (LPS)” value in the assay on TNFα [3] (venlafaxine alone, 39.83 to 0.02) was 3.33%.

(Values after patent publication US20050153947A1, “Methods and reagents for the treatment of diseases and disorders associated with increased levels of proinflammatory cytokines” (priority 2002, published 2005).)
